Molecules are shown by their SMILES. “And” between values parts separate entries of the source, which are not always exact repeats. Identical values can stand only once. “Also recorded” adds a separate entry of the source.

Results on three compounds are retold here after patent publication US9592214B2, “Compounds for the treatment of autism in a baby child” (INSERM (INSTITUT NATIONAL DE LA SANTE ET DE LA RECHERCHE …, priority 2010, dated 2017).

Test [1] deals with hippocampal slices. Briefly: Effects of isoguvacine on spike frequency, extracellular field potential recordings in hippocampal slices. To be noted: P15. The format is cell-based, rat. Here is the method: (§1) Experiments were performed on fetuses and neonatal rat pups. We removed E20 rats from deeply anesthetized dams [subcutaneous injection of a mixture of xylazine (Rompun 2%; used at 0.05%) and ketamine (Imalgene 1000 used at 50 g/l)]. Hippocampal slices ([…] thick) were prepared using a Microm tissue slicer (International GmbH, Germany) as described previously (Tyzio et al. 2006 Science 314, 1788; Tyzio et al, 2008, Eur J. Neurosci. 27(10):2515-28). Slices were kept in oxygenated (95% O2/5% CO2) artificial cerebrospinal fluid (ACSF) of the following composition (in mM): NaCl 126, KCl 3.5, CaCl2 2.0, MgCl2 1.3, NaHCO3 25, NaH2PO4 1.2 and glucose 11 (pH 7.4) at room temperature (20-22° C.) at least 1 hour before use.
Extracellular field potentials and multi-unit activity (MUA) recordings Recording were made in the hippocampal slices using tungsten wire electrodes (diameter: 50 μm, California Fine Wire, Grover Beach, Calif.) and a low-noise multichannel DAM-8A amplifiers (WPI, GB; […]; gain: ×1000). The signals were digitized using an analogue-to-digital converter (Digidata 1440A, Axon Instruments, USA). pCLAMP 10.1, Clampfit 10.1 (Axon Instruments, USA), MiniAnalysis 6.03 (Synaptosoft, Decatur, Calif.) and Origin 7.5 (Microcal Software, USA) programs were used for the acquisition and analysis of the synaptic activities. Sampling interval per signal was 100 microseconds (10 kHz).
(§2) Bumetanide (10 μM), Oxytocin (1 μM) and Isoguvacine (2 μM) were directly added to the perfusion solutions. Bumetanide pretreatment (2-2.5 mg/kg) was given to the dams in drinking water. All drugs used were purchased from Sigma. SSR126768A (Sanofi-Synthelabo) pretreatment (1 mg/kg) was given to the dams in drinking water.

Test [2] relates to CA3 pyramidal cells. Briefly: Effect of isoguvacine on spontaneous spiking, cell-attached recordings. It counts as cell-based, rat. The conditions noted are these: result in words. How it is done: as §1
For recordings, slices were placed into a conventional fully submerged chamber superfused with ACSF at a rate of 2-3 ml/min at room temperature. Patch clamp recordings from visually identified CA3 pyramidal cells in cell-attached configuration were performed using EPC-10 amplifier (HEKA Elektronik Dr. Schulze GmbH, Lambrecht/Pfalz, Germany). […] Recordings were digitized (10 kHz) online with Digidata-1200 interface card (Axon Instruments, Union City, Calif.) and analyzed offline with Axon package, MiniAnalysis (S (Synaptsoft, Decatur, Ga.), and Origin (Microcal Software, Northampton, Mass.). […]

Test [3] deals with hippocampal CA3 pyramidal cells. Briefly: DFGABA in hippocampal CA3 pyramidal cells of offspring after in utero VPA / maternal bumetanide pretreatment. The format is in vivo, rat. The conditions noted are these: VPA rats (dams 600 mg/kg VPA i.p. at E12). Here is the method:
(§3) Time-mated female Wistar rats at gestational day E7-8 were housed under standard laboratory conditions. The in utero valproic acid (VPA) rodent model of autism spectrum disorders has been previously described in detail. Briefly, the sodium salt of VPA (Sigma-Aldrich) was dissolved in physiological saline solution to a concentration of 300 mg/ml. Pregnant rats received a single intra-peritoneal dose of 600 mg/kg on gestational day 12 (E12). The control dams received a single similar volume injection of saline at the same gestational time-point. Dams were housed individually and allowed to raise their own litters. The offspring were used for experiments on embryonic day 20 (E20) and postnatal (P) days 0, 2, 4, 7, 15 and 30 (after being weaned at P23). Experiments were carried out on offspring of either sex.
as §1
For recordings, slices were placed into a conventional fully submerged chamber superfused with ACSF at a rate of 2-3 ml/min at room temperature. Patch clamp recordings from visually identified CA3 pyramidal cells in cell-attached configuration were performed using EPC-10 amplifier (HEKA Elektronik Dr. Schulze GmbH, Lambrecht/Pfalz, Germany). Patch pipette solution for recordings of single GABAA channels contained (in mM): NaCl 120, KCl 5, TEA-Cl 20, 4-aminopyridine 5, CaCl2 0.1, MgCl2 10, glucose 10, Hepes-NaOH 10 buffered to pH 7.2-7.3 and GABA 2 μM. Analysis of currents through single channels and current-voltage relationships were performed using Clampfit 9.2 (Axon Instruments, Union City, Calif.). Recordings were digitized (10 kHz) online with Digidata-1200 interface card (Axon Instruments, Union City, Calif.) and analyzed offline with Axon package, MiniAnalysis (S (Synaptsoft, Decatur, Ga.), and Origin (Microcal Software, Northampton, Mass.).
as §2
If the polarity of GABA actions at delivery produces long terms effects in offsprings, then restoring low [Cl^−]i and inhibitory GABA at delivery might restore physiological parameters in juvenile rodents. To test this hypothesis, pregnant females were treated orally 1 day before delivery with bumetanide (2-2.5 mg/kg in drinking water) and juvenile offspring neurons recorded at P15. […] In VPA rats, GABAergic inputs are excitatory and contribute to hyperexcitability of the network. Bumetanide decreases [Cl^−]i and consequently reduces contribution of excitatory GABAergic inputs in the overall network activity.

Test [4] deals with Valproate rat model of autism. Briefly: Isolation-induced ultrasonic vocalizations. The conditions noted are these: P4 VPA rats. It counts as in vivo. Here is the method:
as §3
To induce ultrasonic vocalizations, […], and were placed into an isolation box (23×28×18 cm) located inside a sound attenuating isolation cubicle (54×57×41 cm; Coulbourn Instruments, Allentown, Pa., USA), and evaluated for ultrasonic vocalizations during a three minutes test. An ultrasound microphone (Avisoft UltraSoundGate Condenser microphone capsule CM16/CMPA, Avisoft Bioacoustics, Berlin, Germany), placed in the roof of the box, was sensitive to frequencies of 10 to 250 kHz. Vocalizations were recorded using the Avisoft Recorder software (version 4.2) with a sampling rate of 250 kHz in 16 bit format. For acoustical analysis, recordings were transferred to SASLab Pro (version 5.2; Avisoft Bioacoustics) and a fast Fourier transformation was conducted (512 FFT-length, 100% frame, Hamming window and 75% time window overlap). The accuracy of call detection was verified manually by an educated user. A Pearson correlation coefficient was computed to assess the relationship between Automatic and Manual analysis. There was 0.99 correlation between the two variables.
as §2

Test [5] relates to Valproate rat model of autism. Kind of test: In vivo EEG recordings in the CA3 area of hippocampus of head-restrained rats. The conditions noted are these: VPA rats P13-15. Here is the method: as §3
Head-fixed rat pups of age P13-P15 were prepared for extracellular recording under isoflurane anesthesia. The skin and periosteum were removed from the skull, which was then covered by glue and dental cement except for a 4-9 mm^2 window above the somatosensory cortex from one or two hemispheres for the silicon probe penetration (4.0-4.2 mm lateral to midline and 2.2-2.5 mm caudal to bregma) and for the reference electrode (1.0-1.5 mm lateral to midline and 6.0-6.5 mm caudal to bregma). The rat was positioned in the stereotaxic apparatus. A 1 mm-diameter burr hole was drilled in the skull; the dura was cut and removed. Recordings were made 1 h after recovery from anesthesia. Pups were kept restrained for <3 h and were closely monitored for signs of stress and to ensure that they spent a normal proportion of their time sleeping. The outside temperature was maintained between 35 and 36° C. The animals were kept in low-light conditions throughout all experiments. 16-site linear silicone probe (NeuroNexus Technologies) coupled to a direct-current amplifier (Molecular Devices) and dunked previously in fluorescent dye (DiI, Invitrogen) was slowly penetrated via the hole at […] depth under the angle 30° in the coronal plane. EEGs were recorded during 2 hours, using a 16-channel amplifier (A-M System, Inc.) and digitized at 5 kHz using Axoscope software (Molecular Deviced). Recordings were amplified and high-pass filtered at 0.3 Hz in Axoscope. Silicone probe location was verified postmortem via dye localization. To quantify the frequency band integral power the traces were band-pass filtered at frequency bands […]) θ-(4-7 Hz), α-(7-12 Hz), β-(12-25 Hz), Low γ-(25-60 Hz), High γ-(60-120 Hz) and Fast oscillations-(120-500 Hz)). Fast Fourier Transform (FFT) was applied with Clampfit (Molecular Devices). Integrals of FFT power spectra were taken and averaged with OriginPro (OriginLab Corporation).
as §2

In test [6] the test system is hippocampal CA3 pyramidal neurons. Briefly: Whole-cell voltage clamp recordings of sEPSCs in offspring after maternal pretreatment. The conditions noted are these: P15 rats, maternal SSR pretreatment (1 mg/kg in drinking water); result in words. It counts as in vivo, rat. Here is the method: Standard whole-cell recordings were performed in coronal neocortical rat or mouse brain slices at room temperature (20-22° C.) from the soma of hippocampal CA3 neurons using an EPC-10 (HEKA Elektronik, Germany) amplifier and filtered at 3-10 kHz. The internal solution contained (in mM): 130 K-gluconate, 10 Na-gluconate, 4 NaCl, 4 MgATP, 4 phosphocreatine, 10 HEPES, and 0.3 GTP (pH 7.3 with KOH). Biocytin (final concentration 0.3-0.5%) was added to the pipette solution to label the neurons from which recordings were obtained. Neurons were visualized by using infrared DIC video microscopy. Spontaneous postsynaptic currents were recorded for […] at the reversal potentials for […] currents (−70 mV). It should be specifically noted that all recordings were made in normal ACSF (1.3 mM MgCl2). Stored data were analyzed using the Mini Analysis 6.0.3 (Synaptosoft Inc., Chapell Hill, N.C.) and Origin (MicroCal, Northampton, Mass.) software. To minimize potential sampling bias, the pups from at least three deliveries for each condition were studied. Data are expressed as mean±S.E.M.
Bumetanide (10 μM), Oxytocin (1 μM) and Isoguvacine (2 μM) were directly added to the perfusion solutions. Bumetanide pretreatment (2-2.5 mg/kg) was given to the dams in drinking water. All drugs used were purchased from Sigma. […]

In the case of `O=C(O)C1=CCNCC1` [isoguvacine], the “Effects of isoguvacine on frequency of spikes in extracellular recordings (% of control), mean ± S.E.” value in test [1] (VPA rats) is reported as 213.5 ± 16.3 (n = 6), P < 0.001 % of control; in test [1] (VPA rats, listed as Isoguvacine), 213.5±16.3 % of control; in test [1] (control rats) it was 38.9 ± 5.1 (n = 3), P < 0.001 % of control; in test [1] (control rats, listed as Isoguvacine) it was 38.9±5.1 % of control. The “spike frequency in cell-attached recordings” value is given as “inhibited or did not affected” in test [2] (isoguvacine 2 μM, naive neurons, P0); “excitatory action; also recorded: increased” in test [2] (isoguvacine, VPA neurons, P0 and P15).

Turning to `CCCC(CCC)C(=O)O` [VPA, valproic acid], the “DFGABA (mV), mean ± S.E.” value in test [3] (age E20) was 8.5 ± 0.6 (n = 9) mV; in test [3] (age P0), 8.2 ± 1.3 (n = 29) mV; in test [3] (age P2), 11.7 ± 1.4 (n = 24) mV; in test [3] (age P7), 9.7 ± 1.1 (n = 26) mV; in test [3] (age P15), 10.2±1.0 mV and 10.2 ± 1 (n = 25 mV and 10.2 ± 1.0 (n = 25) mV; in test [3] (age P30) it was 8.7 ± 0.8 (n = 25) mV. In test [4], the “Number of calls, isolation-induced USVs mean ± S.E.M” value is 1 ± 0.5 (n = 26). Also, the “Total duration of calls, isolation-induced USVs mean ± S.E.M” value in test [4] was 0.04 ± 0.02 (n = 26). For the same compound, the “Integral power spectra of EEG recordings, mean ± S.E.M.” value in test [5] (frequency band 0.5-4 Hz) amounted to 164.05 ± 39.44; in test [5] (frequency band 4-7 Hz), 42.01 ± 12.03; in test [5] (frequency band 7-12 Hz), 16.52 ± 4.32; in test [5] (frequency band 12-25 Hz), 16.56 ± 4.78; in test [5] (frequency band 25-60 Hz), 2.41 ± 0.62; in test [5] (frequency band 60-120 Hz), 0.74 ± 0.17. For the same compound, in test [5] (frequency band 120-500 Hz), the “Integral power spectra of EEG recordings, mean ± S.E.M.” value turned out to be 1.83 ± 0.42.

With `CCN(Cc1cccnc1)C(=O)c1ccc(Cl)c([C@]2(C)C(=O)N(Cc3ccc(OC)cc3OC)c3ccc(Cl)cc32)c1` [SSR], the “spontaneous activity of neuronal networks (sEPSCs)” value in test [6] is “increases”.
